Measurements taken from patent publication US12486280B2, “CDK inhibitors and uses thereof” (California Institute of Technology, priority 2018, dated 2025).
≈ marks a conversion by molar mass, not a printed value. Like-named read-outs stand apart in the source and are kept apart here.

How the values were obtained:
[1] = Measurement of Compound Metabolic Stability in hepatocytes
[2] = system: drug-resistant cell lines of Table 2 (NCI-H1437, OV207, HCC1806, NCI-H2172); test: Cell Line Growth Retardation Assay, resistant cohort; assay type: cell-based, human; conditions: Homo sapiens, […], geometric mean over resistant cohort; 6 days growth; read-out: AvgResIC50
Method: (§1) Cells were seeded at densities of 1,000-5,000 cells per well in 48-well tissue culture plates. After a 24 hours rest period, cells were treated with compound at 10 μM, 2 μM, 0.4 μM, 0.08 μM, 0.016 μM, and 0.0032 μM. A group of cells were treated with the vehicle in which the compound was prepared and served as a control. The cells were grown in the presence of compounds for 6 days and were counted on day 0 and day 6. A11 cell counting was performed using a Synentec Cellavista plate imager. […] Growth inhibition was calculated as a ratio of cell population doublings in the presence of compound versus the absence of compound. […] IC50 values for each compound (see Table 3; reported in μM) were calculated by fitting curves to data points from each dose-response assay using the Proc NLIN function in SAS for Windows version 9.2 (SAS Institute, Inc.).
(§2) These sensitive and resistant cohorts were interrogated for response to each compound, and IC50s were calculated for each cell line using the same technique described above. Average IC50s for the sensitive and resistant cohorts were calculated as geometric means of the group. “Therapeutic Window” for each compound was calculated by dividing the average IC50 for the drug-resistant group by the average IC50 for the drug-sensitive group.

hERG potassium channels = hERG potassium channels (Homo sapiens (Human), UniProt Q12809); test: hERG Inhibition Assay (QPatch automated patch clamp, CHO cells); conditions: percent of control current
hERG potassium channels, sequence (Q12809 whole entry): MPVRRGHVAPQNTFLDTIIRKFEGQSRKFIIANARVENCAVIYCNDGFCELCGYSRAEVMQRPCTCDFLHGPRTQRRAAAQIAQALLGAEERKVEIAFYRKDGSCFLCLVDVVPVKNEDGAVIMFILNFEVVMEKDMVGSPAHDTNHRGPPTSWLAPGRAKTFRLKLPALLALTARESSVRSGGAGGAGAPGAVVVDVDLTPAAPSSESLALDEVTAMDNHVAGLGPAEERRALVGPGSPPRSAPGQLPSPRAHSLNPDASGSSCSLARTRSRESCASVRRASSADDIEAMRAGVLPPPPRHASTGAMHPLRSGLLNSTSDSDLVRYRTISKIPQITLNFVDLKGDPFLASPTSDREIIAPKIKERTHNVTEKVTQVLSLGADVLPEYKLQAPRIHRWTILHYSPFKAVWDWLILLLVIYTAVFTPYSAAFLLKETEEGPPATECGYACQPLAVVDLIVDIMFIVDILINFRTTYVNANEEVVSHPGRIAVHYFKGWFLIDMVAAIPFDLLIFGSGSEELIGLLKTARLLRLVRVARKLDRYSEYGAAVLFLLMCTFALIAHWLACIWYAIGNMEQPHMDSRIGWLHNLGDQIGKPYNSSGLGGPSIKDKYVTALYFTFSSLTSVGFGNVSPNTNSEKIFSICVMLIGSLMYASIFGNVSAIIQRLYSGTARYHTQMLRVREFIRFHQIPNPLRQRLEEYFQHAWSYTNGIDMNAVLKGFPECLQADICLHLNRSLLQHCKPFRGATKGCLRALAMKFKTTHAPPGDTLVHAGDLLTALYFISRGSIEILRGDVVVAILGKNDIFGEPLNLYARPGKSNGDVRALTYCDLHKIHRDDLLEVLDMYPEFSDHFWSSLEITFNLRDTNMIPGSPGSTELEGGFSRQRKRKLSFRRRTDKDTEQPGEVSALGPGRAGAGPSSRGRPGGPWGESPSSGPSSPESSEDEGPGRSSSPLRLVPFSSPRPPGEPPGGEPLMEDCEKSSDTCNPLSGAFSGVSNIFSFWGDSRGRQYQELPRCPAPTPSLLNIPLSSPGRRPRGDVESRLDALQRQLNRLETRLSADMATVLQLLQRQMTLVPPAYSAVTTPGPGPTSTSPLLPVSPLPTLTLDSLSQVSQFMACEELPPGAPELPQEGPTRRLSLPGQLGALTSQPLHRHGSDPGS
Method: Effects of compounds on hERG potassium channel conductance was assessed using the automated patch clamp method QPatch^HTX. Compounds were prepared at 10 mM stocks. CHO cells stably expressing hERG potassium channels were used for this assay. Cells were cultured in a humidified and air-controlled 5% CO2) incubator at 37° C. Compound stocks and the positive control Amitriptyline were dissolved in 100% DMSO to make various solution concentrations. These solutions were further diluted into extracellular solution to achieve final concentrations for testing. The final DMSO concentration in extracellular solution was 0.30%. The hERG QPatch^HTX assay was conducted at room temperature.
The following voltage command protocol was used: • From the holding potential of −80 mV, the voltage was first stepped to −50 mV for 80 ms for leak subtraction, and then stepped to +20 mV for 4,800 ms to open hERG channels. • After which, the voltage was stepped back down to −50 mV for 5,000 ms, causing a “rebound” or tail current, which was measured and collected for data analysis. • Finally, the voltage was stepped back to the holding potential of −80 mV for 3,100 ms.
For each experiment, three additions of 5 μL of the vehicle were applied, followed by 30 runs of the voltage command protocol for a baseline period. Then, the ascending doses of each compound were added with three repetitions (5 μL of compound each time).

[3] = Compound Solubility Assay (kinetic solubility); assay type: physicochemical; conditions: kinetic from dmso stock
Method: The relative kinetic solubility of each compound was determined at both low (1.2) and neutral (7.4) pH. Compounds were prepared at 10 mM stocks. […] Compounds were allowed to shake at room temperature for 24 hours in 50 mM phosphate buffer pH 7.4, or in SGF buffer pH 1.2 at 37° C. for 24 hours.

[4] = system: CYP isozymes (IC50s averaged over the isozymes); test: CYP Enzymatic Inhibition Assay in human liver microsomes
Method: Inhibition of various CYP isozymes was measured for each compound using a CYP enzyme inhibition assay in human liver microsomes (HLM). Compounds and standard inhibitors were prepared at a 100× working solutions. Substrates or PBS were added to the corresponding wells followed by addition of compounds, solvent or positive control working solution to corresponding wells. HLMs were added to the pre-warmed (37° C.) plate and mixed with NADPH cofactor for 10 minutes at 37° C. The reaction was terminated by adding 400 μL cold stop solution (200 ng/mL Tolbutamide and 200 ng/mL Labetalol in ACN). The plate was centrifuged at 4,000 rpm for 20 minutes, and supernatant was transferred to 100 μL HPLC water followed by LC/MS/MS analysis.

[5] = system: drug-sensitive cell lines of Table 2 (EFM-19, MDA-MB-453, T-47D, ZR-75-1, NCI-H441, OVTOKO, NCI-H1838); test: Cell Line Growth Retardation Assay, sensitive cohort; assay type: cell-based, human; conditions: for IC50: Homo sapiens, geometric mean over sensitive cohort, 6 days growth, read-out: AvgSensIC50; for Ther Window: average IC50 drug-resistant group divided by average IC50 drug-sensitive group
Method: as §1, §2

CDK4 = CDK4 (Homo sapiens (Human), UniProt P11802); test: Cdk4 and 6 Enzymatic Inhibition Assay (radiometric 33PanQinase, Ki determination); assay type: biochemical
CDK4, sequence (P11802 whole entry): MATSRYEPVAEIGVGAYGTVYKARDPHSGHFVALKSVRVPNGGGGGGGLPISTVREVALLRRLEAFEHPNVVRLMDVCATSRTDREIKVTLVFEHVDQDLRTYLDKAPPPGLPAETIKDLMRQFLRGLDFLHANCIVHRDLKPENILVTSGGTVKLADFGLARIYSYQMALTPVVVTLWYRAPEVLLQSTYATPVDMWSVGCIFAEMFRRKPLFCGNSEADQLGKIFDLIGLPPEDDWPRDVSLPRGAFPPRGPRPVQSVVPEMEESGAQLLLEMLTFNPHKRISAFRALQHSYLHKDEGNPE
CDK4, sequence (P24385 whole entry partner): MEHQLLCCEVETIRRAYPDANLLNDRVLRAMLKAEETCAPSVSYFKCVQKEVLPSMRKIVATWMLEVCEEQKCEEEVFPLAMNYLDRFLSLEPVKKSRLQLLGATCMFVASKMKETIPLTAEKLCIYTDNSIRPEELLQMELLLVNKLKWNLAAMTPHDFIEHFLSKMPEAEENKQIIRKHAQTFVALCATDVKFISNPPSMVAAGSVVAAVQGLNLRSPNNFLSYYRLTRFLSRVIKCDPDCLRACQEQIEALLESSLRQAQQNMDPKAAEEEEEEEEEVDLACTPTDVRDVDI
Method: (§3) 10 distinct concentrations were prepared, with a dilution endpoint of 6×10^−9 M in 100% DMSO. 100% DMSO was used as a control. 10 μL from each of the serial dilutions were aliquoted into separate wells of a 96-well plate and 90 μL of water were added to each of those wells. The plate was shaken thoroughly, and 5 μL from each of the plate's wells were transferred into wells of the assay plate. The final volume of wells in the assay plate was 50 μL. A11 compounds were tested at 10 assay concentrations in the range from 2×10^−6 M to 6×10^−11 M. The final DMSO concentration in the wells of the assay plate was 1% in all cases.
(§4) A radiometric protein kinase assay (33PanQinase® Activity Assay) was used for measuring the kinase activity of six protein kinases. A11 kinase assays were performed in 96-well FlashPlates™ from PerkinElmer (Boston, MA, USA). The assay for all protein kinases contained 70 mM HEPES-NaOH pH 7.5, 3 mM MgCl2, 3 mM MnCl2, 3 μM Na-orthovanadate, 1.2 mM DTT, 50 μg/mL PEG20000, ATP [γ-33P]-ATP (approx. 9×1005 cpm per well), protein kinase and substrate. The reaction cocktails were incubated at 30° C. for 60 minutes. The reaction was stopped with 50 μL of 2% (v/v) H3PO4, and plates were aspirated and washed two times with 200 μL 0.9% (w/v) NaCl. Incorporation of ^33Pi was determined with a microplate scintillation counter (Microbeta, Wallac).

CDK6 = CDK6 (Homo sapiens (Human), UniProt Q00534); test: as above; assay type: biochemical
CDK6, sequence (Q00534 whole entry): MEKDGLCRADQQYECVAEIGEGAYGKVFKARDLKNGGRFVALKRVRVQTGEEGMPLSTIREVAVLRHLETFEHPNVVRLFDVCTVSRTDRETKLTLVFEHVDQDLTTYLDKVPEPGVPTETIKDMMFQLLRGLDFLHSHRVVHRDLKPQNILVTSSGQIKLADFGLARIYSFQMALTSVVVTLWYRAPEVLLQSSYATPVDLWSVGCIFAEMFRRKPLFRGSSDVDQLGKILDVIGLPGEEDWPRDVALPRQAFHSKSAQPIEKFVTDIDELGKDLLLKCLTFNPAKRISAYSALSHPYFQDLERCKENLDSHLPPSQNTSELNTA
CDK6, sequence (P24385 whole entry partner): as the sequence (P24385 whole entry partner) above
Method: as §3, §4

[6] = Caco-2 Assay (Papp A to B); conditions: human, Caco-2, pH 7.4
Method: The degree of bi-directional human intestinal permeability for compounds was estimated using a Caco-2 cell permeability assay. Caco-2 cells were seeded onto polyethylene membranes in 96-well plates. The growth medium was refreshed every 4 to 5 days until cells formed a confluent cell monolayer. HBSS with 10 mM HEPES at pH 7.4 was used as the transport buffer. Compounds were tested at 2 μM bi-directionally in duplicate. Digoxin, nadolol and metoprolol were included as standards. Digoxin was tested at 10 μM bi-directionally in duplicate, while nadolol and metoprolol were tested at 2 μM in the A to B direction in duplicate. The final DMSO concentration was adjusted to less than 1% for all experiments. The plate was incubated for 2 hours in a CO2 incubator at 37° C., with 5% CO2 at saturated humidity. After incubation, all wells were mixed with acetonitrile containing an internal standard, and the plate was centrifuged at 4,000 rpm for 10 minutes. 100 μL supernatant was collected from each well and diluted with 100 μL distilled water for LC/MS/MS analysis. Concentrations of test and control compounds in starting solution, donor solution, and receiver solution were quantified by LC/MS/MS, using peak area ratio of analyte/internal standard. The apparent permeability coefficient Papp (cm/s) was calculated using the equation: Papp=(dCr/dt)×Vr/(A×C0) Where dCr/dt is the cumulative concentration of compound in the receiver chamber as a function of time (μM/s); Vr is the solution volume in the receiver chamber (0.075 mL on the apical side, 0.25 mL on the basolateral side); A is the surface area for the transport, which is 0.0804 cm^2 for the area of the monolayer; C0 is the initial concentration in the donor chamber (μM).

[7] = 50 mM phosphate buffer, pH 7.4, aqueous buffer, read-out: KS7
[8] = simulated gastric fluid, kinetic solubility, SGF buffer pH 1.2, 37° C., 24 hours, read-out: KS1

SMILES | half-life at 1 μM [1] [min] | IC50 [2] [nM] | hERG (hERG potassium channels) [%] | solubility kinetic at 24 h [3, 7] [µM] | solubility kinetic at 24 h [3, 8] [µM] | IC50 at 10 min [4] [nM] | IC50 [5] [nM] | Ther Window [5] | Ki (CDK4) [nM] | Ki (CDK6) [nM] | Papp A→B at 2 h, 2 μM [6] [×10⁻⁶ cm/s]
Cc1nc2c(F)cc(-c3nc(Nc4ccc(CN5CCO[C@]6(CCN(C)C6)C5)cn4)ncc3F)cc2n1C(C)C [Compound A38] | 38.2 | 840 | 10.65 | 40.5 (≈ 22.2 µg/mL) | 200 (≈ 110 µg/mL) | 80200 | 220 | 3.81 | 1.47 | 7.23 | 0.17
Cc1nc2c(F)cc(-c3nc(Nc4ccc(CN5CCO[C@](C)(CC(=O)N6CCCC6)C5)cn4)ncc3F)cc2n1C(C)C [Compound A60, (R)-2-(4-((6-((5-fluoro-4-(4-fluoro-1-isopropyl-2-methyl-1H-benzo[d]imidazol-6-yl)pyrimidin-2-yl)amino)pyridin-3-yl)methyl)-2-methylmorpholin-2-yl)-1-(pyrrolidin-1-yl)ethan-1-one] | 3.32 | 1000 | 28 | 3.12 (≈ 1.89 µg/mL) | 186 (≈ 113 µg/mL) | 18100 | 270 | 3.70 | 2.14 | 14.5 | 1
Cc1nc2c(F)cc(-c3nc(Nc4ccc(CN5CCO[C@@]6(CCN(S(C)(=O)=O)C6)C5)cn4)ncc3F)cc2n1C(C)C [Compound A31, (S)-5-fluoro-4-(4-fluoro-1-isopropyl-2-methyl-1H-benzo[d]imidazol-6-yl)-N-(5-((2-(methylsulfonyl)-6-oxa-2,9-diazaspiro[4.5]decan-9-yl)methyl)pyridin-2-yl)pyrimidin-2-amine] | 5.65 | 960 | 21.67 | 3.09 (≈ 1.89 µg/mL) | 200 (≈ 123 µg/mL) | 12800 | 140 | 6.72 | 1.71 | 10.2 | 0.85
Cc1nc2c(F)cc(-c3nc(Nc4ccc(CN5CCO[C@](C)(CCN6CCC6)C5)cn4)ncc3F)cc2n1C(C)C [Compound A17, (R)—N-(5-((2-(2-(azetidin-1-yl)ethyl)-2-methylmorpholino)methyl)pyridin-2-yl)-5-fluoro-4-(4-fluoro-1-isopropyl-2-methyl-1H-benzo[d]imidazol-6-yl)pyrimidin-2-amine] | 217 | 850 | 20.47 | – | – | 51700 | 50 | 15.41 | 1.03 | 5.25 | 0.02
Cc1nc2c(F)cc(-c3nc(Nc4ccc(CN5CCO[C@](C)(CCN6CC[C@@H](F)C6)C5)cn4)ncc3F)cc2n1C(C)C [Compound A15, 5-fluoro-4-(4-fluoro-1-isopropyl-2-methyl-1H-benzo[d]imidazol-6-yl)-N-(5-(((R)-2-(2-((R)-3-fluoropyrrolidin-1-yl)ethyl)-2-methylmorpholino)methyl)pyridin-2-yl)pyrimidin-2-amine] | 19.3 | 590 | 17.46 | – | – | 17100 | 80 | 7.07 | 0.78 | 4.04 | 0.8
Cc1nc2c(F)cc(-c3nc(Nc4ccc(CN5CCO[C@](C)(CCN6CCCC6)C5)cn4)ncc3F)cc2n1C(C)C [Compound A16, (R)-5-fluoro-4-(4-fluoro-1-isopropyl-2-methyl-1H-benzo[d]imidazol-6-yl)-N-(5-((2-methyl-2-(2-(pyrrolidin-1-yl)ethyl)morpholino)methyl)pyridin-2-yl)pyrimidin-2-amine] | 217 | 870 | 18.09 | – | – | 47900 | 60 | 15.20 | 1.42 | 5.81 | 0.01
